Data taken from article PMC3590144, “Determination of the Structure of the Catabolic N-Succinylornithine Transaminase (AstC) from Escherichia coli” (PLoS ONE, 2013).

Assays:
Type in all cases: binding
[1] = biological target: T1, AstC (Escherichia coli, UniProt P77581); assay: X-ray crystal structure, […] Å; details: covalent; internal aldimine with Lys252 at dimer interface; sodium malonate, Tris pH 8.0
T1 construct: full-length, native untagged, no plasmid; purified from E. coli BL21(DE3) by Ni-NTA and size exclusion as apo-protein, reconstituted with PLP; about 406 residues; dimer
T1 sequence (P77581 whole entry): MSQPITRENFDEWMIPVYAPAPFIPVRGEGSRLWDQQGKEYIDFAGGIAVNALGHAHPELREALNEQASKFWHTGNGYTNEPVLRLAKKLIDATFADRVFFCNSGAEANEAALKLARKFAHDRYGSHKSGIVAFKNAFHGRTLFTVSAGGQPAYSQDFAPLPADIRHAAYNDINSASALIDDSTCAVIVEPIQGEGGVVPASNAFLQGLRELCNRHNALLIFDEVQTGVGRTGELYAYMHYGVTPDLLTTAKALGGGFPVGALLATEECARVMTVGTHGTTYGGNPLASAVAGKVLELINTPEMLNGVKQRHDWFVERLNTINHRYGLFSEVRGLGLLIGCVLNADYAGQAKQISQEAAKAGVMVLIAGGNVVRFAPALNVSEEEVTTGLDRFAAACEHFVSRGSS

[2] = biological target: T1, AstC; assay: differential scanning fluorimetry, SYPRO dye; details: Tris buffered saline; apo-protein plus PLP (about 10-fold excess) versus apo-protein
[3] = biological target: T1, AstC; assay: X-ray crystal structure of co-crystals, […] Å; details: covalent to PLP cofactor (external aldimine); PLP present; salt bridge to Arg141; ammonium sulfate pH 7-9

Row | apparent Tm (holo-AstC; apo-AstC 43.5) [2] [°C] | SMILES | X-ray crystal structure, 2.20 Å [1] | X-ray crystal structure of co-crystals, 2.45 Å [3]
1 | 46 | Cc1ncc(COP(=O)(O)O)c(C=O)c1O [PLP, pyridoxal phosphate] | continuous density between Lys252 and the PLP, indicating that the expected aldimine had formed | –
2 | – | NCCC[C@H](NC(=O)CCC(=O)O)C(=O)O [SO, succinylornithine] | – | continuous electron density between PLP and SO was observed (see Figure 5C)
